Experimental data taken from patent US6410529B1, “Phenyl urea and phenyl thiourea derivatives as HFGAN72 antagonists” (SmithKline Beecham p.l.c., priority 1997, dated 2002).
Structures can show the parent of a compound that is named as a salt.

Each molecule was assayed against T1, human HFGAN72 receptor (Homo sapiens, UniProt O43613) (assay: HFGAN72 receptor antagonist activity, FLIPR intracellular calcium assay against human Lig 72A). Details: HEK293 cells expressing human HFGAN72 receptor; against 3.0 nM human Lig 72A; Kb=IC50/(1+([3/EC50]).
T1 construct: expressed in transfected cells; host or cells: HEK293
T1 sequence (O43613 1-425): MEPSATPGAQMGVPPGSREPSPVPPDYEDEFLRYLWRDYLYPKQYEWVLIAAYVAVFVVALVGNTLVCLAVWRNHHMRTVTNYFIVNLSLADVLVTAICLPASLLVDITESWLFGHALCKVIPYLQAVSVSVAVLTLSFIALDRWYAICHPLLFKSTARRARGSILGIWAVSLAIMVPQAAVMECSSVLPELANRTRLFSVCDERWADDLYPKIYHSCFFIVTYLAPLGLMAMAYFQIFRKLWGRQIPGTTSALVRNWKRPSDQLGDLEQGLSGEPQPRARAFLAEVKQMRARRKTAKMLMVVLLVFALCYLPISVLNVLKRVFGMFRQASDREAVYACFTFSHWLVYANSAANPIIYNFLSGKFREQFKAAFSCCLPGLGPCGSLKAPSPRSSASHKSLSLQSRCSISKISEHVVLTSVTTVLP
Format: cell-based
Method: The HFGAN72 receptor antagonist activity of the compounds of formula (I), including those compounds in which X and Y both represent CH and without provisos a)-f), was determined in accordance with the following experimental method.
HEK293 cells expressing the human HFGAN72 receptor were grown in cell medium (MEM medium with Earl's salts) containing 2 mM L-Glutamine, 0.4 mg/mL G418 Sulphate from GIBCO BRL and 10% heat inactivated fetal calf serum from Gibco BRL. The cells were seeded at 20,000 cells/100 μl/well into 96-well black clear bottom sterile plates from Costar which had been pre-coated with 10 μg/well of poly-L-lysine from SIGMA. The seeded plates were incubated overnight at 37° C. in 5% CO2.
Agonists were prepared as 1 mM stocks in water:DMSO (1:1). EC50 values (the concentration required to produce 50% maximal response) were estimated using 11× half log unit dilutions (Biomek 2000, Beckman) in Tyrode's buffer containing probenecid (10 mM HEPES with 145 mM NaCl, 10 mM glucose, 2.5 mM KCl, 1.5 mM CaCl2, 1.2 mM MgCl2 and 2.5 mM probenecid; pH7.4). […] On the day of assay 50 μl of cell medium containing probenecid (Sigma) and Fluo3AM (Texas Fluorescence Laboratories) was added (Quadra, Tomtec) to each well to give final concentrations of 2.5 mM and 4 μM, respectively. […] Cell plates were then transferred to the Fluorescent Imaging Plate Reader (FLIPR, Molecular Devices) instrument and maintained at 37° C. in humidified air. […] Agonists were added (by the FLIPR) after 20 sec (during continuous reading). From each well, peak fluorescence was determined over the whole assay period and the mean of readings 1-19 inclusive was subtracted from this figure. The peak increase in fluorescence was plotted against compound concentration and iteratively curve fitted using a four parameter logistic fit (as described by Bowen and Jerman, 1995, TiPS, 16, 413-417) to generate a concentration effect value. Antagonist Kb values were calculated using the equation: […]
where EC50 was the potency of human Lig72A determined in the assay (in nM terms) and IC50 is expressed in molar terms.

Row | SMILES | Kb [nM]
1 | Cn1ccc2cc(NC(=O)Nc3ccnc4ccccc34)ccc21 [Example 1, 1-(1-Methyl-1H-indol-5-yl)-3-quinolin-4-ylurea] | < 100
2 | CSc1ccc(NC(=O)Nc2ccnc3ccccc23)cc1 [Example 14, 1-(4-Methylthiophenyl)-3-quinolin-4-ylurea hydrochloride] | < 100
3 | COc1ccc(NC(=O)Nc2ccnc3ccccc23)cc1Cl [Example 31, 1-(3-Chloro-4-methoxyphenyl)-3-quinolin-4-ylurea hydrochloride] | < 100
